This test addresses T1, ArrMab (Mycobacteroides abscessus, UniProt B1MH05).
T1 construct: gene MAB_0591; N-terminal 6xHis tag (pET28), expressed in E. coli T7 Express; RED-NHS amine-labelled for MST
The test can be described thus: microscale thermophoresis. The class given is binding. From the text:
microscale thermophoresis on ArrMab | ArrMab bound both antibiotics with the same Kd

pKd: −log10 of the molar value.

T1 sequence (B1MH05 entry or part of it): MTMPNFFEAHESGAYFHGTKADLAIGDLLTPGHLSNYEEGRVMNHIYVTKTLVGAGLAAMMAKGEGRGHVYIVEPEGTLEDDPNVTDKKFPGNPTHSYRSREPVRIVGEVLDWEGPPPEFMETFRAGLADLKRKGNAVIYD

For `CO[C@H]1/C=C/O[C@@]2(C)Oc3c(C)c(O)c4c(O)c(c(/C=N/N5CCN(C)CC5)c(O)c4c3C2=O)NC(=O)/C(C)=C\C=C\[C@H](C)[C@H](O)[C@@H](C)[C@@H](O)[C@@H](C)[C@H](OC(C)=O)[C@@H]1C` [rifampicin], the pKd is 4.55.

As a reminder, the pKd is the negative decadic logarithm of the Kd, by convention in mol/L. Low readings indicate a large Kd, high ones a small Kd.

The values are drawn from PMC8597724, “Kanglemycin A Can Overcome Rifamycin Resistance Caused by ADP-Ribosylation by Arr Protein” (Antimicrobial Agents and Chemotherapy, 2021).
